Laboratory results published in patent US9119823B2 (priority 2008, dated 2015).
Like-named read-outs stand apart in the source and are kept apart here.

Tests used:
[1] = test system: nitric oxide synthase (NOS); details: read-out: Michaelis constant (KM) for substrate; cited from earlier work
[2] = in vivo; cited from earlier work
[3] = adults; cited from earlier work
[4] = cited from earlier work
[5] = man, cited from earlier work
[6] = 50 mg/L nitrite in the drinking water for 7 days
Text: Enzymatic NO insufficiency is a hallmark of a number of diseases including cardiovascular disease. […] The mice were fed standard rodent chow or low NOx diet.

[7] = test system: lesion formation on the abdominal aorta; details: 50 mg/L nitrite for 12 weeks, high fat diet
Text: Although the LDb mice spontaneously develop atherosclerosis on normal rodent chow, the addition of a high fat diet will accelerate the process from 8 months to 12 weeks.

[8] = low NOx diet
[9] = test system: myocardial ischemia/reperfusion (I/R) injury
[10] = test system: myocardial ischemia/reperfusion injury; details: eNOS-/- mice, low NOx diet, 50 mg/L nitrite, 30 minutes ischemia and 24 hour reperfusion
[11] = cited from earlier work; for half life of nitrite in whole blood: human whole blood
[12] = cited from earlier work; remark: listed apart in the source
[13] = two year study, male or female rats; cited from earlier work
[14] = two year study, male or female mice; cited from earlier work
tissue homogenates = details: at 0.5% oxygen; cited from earlier work
[15] = 50 mg/L nitrite in the drinking water for 1 week

N=C(N)NCCC[C@H](N)C(=O)O [L-arginine]
Km [1]: 2.9 µM

O=[N+]([O-])[O-].[Na+] [nitrate, sodium nitrate]
circulating half life of nitrate [2]: 300 to 480 min | clearance of nitrate from blood to urine [3]: Approximately 20 ml/min | ingested nitrate actively taken up by the salivary glands ([4]; excreted in the saliva): ≤ 25% | salivary nitrate reduced to nitrite by bacteria in the mouth ([4]; in vivo): Approximately 20% | poisoning, total oral daily dose ([5]; oral): > 4 g | dose generally fatal [5]: 13 to 15 g | dose that may be fatal [5]: 8 g | poisoning, single dose [5]: more than 1 g

O=NO [nitrite, sodium nitrite]
plasma and cardiac nitroso in eNOS-/- mice [6]: above C57 control levels | plasma nitrite in eNOS-/- mice [6]: restores | less lesion formation on the abdominal aorta than control group [7]: 20% | plasma and heart nitroso levels [8, 15]: replenished and increased | plasma and heart steady-state nitrite and nitrate concentrations [8, 15]: restored | nitrosyl-heme products ([8]; nitrite supplementation in the drinking water): replenished | survival 24 hours post-myocardial infarction ([9]; low NOx diet with nitrite-supplemented drinking water): 76.9% | reversal of the increased myocardial infarct size ([9]; low NOx diet, 50 mg/L sodium nitrite ad libitum in the drinking water): 57% | protection from myocardial ischemia/reperfusion injury [10]: protected | half-life of nitrite in the circulation ([11]; circulation): 1.83 min | half life of nitrite in whole blood [11]: 1.83 min | half life of nitrite in whole blood ([11]; listed as NO2^−): about 110 seconds | fatal dose ([12]; in humans): 22 to 23 mg/kg | fatal dose of nitrite ([12]; in vivo): 22-23 mg/kg body weight | carcinogenic activity [13]: no evidence of carcinogenic activity | carcinogenic activity [14]: no evidence of carcinogenic activity

O=O [oxygen]
inhibition of nitrite reduction (tissue homogenates): 80%
